The test system of this test is 317291-083-R-J1-PDC complex spheroid growth. Nature of the test: Anticancer human tumor 317291-083-R-J1-PDC patient-derived soft tissue sarcoma cell line growth inhibition [Asc]. Conditions: for viability, T/C: stronger effect = lower value. The method in brief:
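Tumor cells were grown as complex spheroids with human endothelial cells (HUVEC) and human mesenchymal stem cells as stroma. Agents were tested alone and in combination, in half-log steps down from the clinical Cmax, or from 10 microM where Cmax was unknown.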

The results in this text go back to PubChem BioAssay AID1963427 (Molecular Pharmacology Branch, DTP, NCI, 2024).

Where “and” joins values, the source holds several entries; their conditions need not be identical. Equal values may be shown once.

As usually defined, the IC50 is the concentration needed to halve the response being measured. By viability, T/C is commonly meant the result in the treated group divided by that in the control group, in per cent.
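Note: compound exposure lasted seven days after spheroids formed for three days.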
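Throughout, for viability, T/C: 100% = DMSO vehicle control wells.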

For `O=C(c1ccc(F)c(F)c1Nc1ccc(I)cc1F)N1CC(O)([C@@H]2CCCCN2)C1` + CCN1C(C(=O)NC23CCC(C(=O)O)(CC2)CC3)C(c2cccc(Cl)c2F)C2(C(=O)Nc3cc(Cl)ccc32)C12CCCCC2, the IC50 by setting is: (curve of first compound, second compound 0.00949 µM) 540 nM; (curve of first compound, second compound 0.03 µM) 448 nM; (curve of first compound, second compound 0.0949 µM) 549 nM; (curve of first compound, second compound 0.3 µM) 526 nM; (curve of first compound, second compound 0.949 µM) 528 nM; (curve of first compound, second compound 3 µM) 389 nM. Further, the viability, T/C by setting is: (second compound 0.00949 µM, first compound 0.00316 µM) 101%; (second compound 0.00949 µM, first compound 0.01 µM) 89%; (second compound 0.00949 µM, first compound 0.0316 µM) 106%; (second compound 0.00949 µM, first compound 0.1 µM) 101%; (second compound 0.00949 µM, first compound 0.316 µM) 71.9%; (second compound 0.00949 µM, first compound 1 µM) 24.8%. The viability, T/C is, setting by setting: (second compound 0.03 µM, first compound 0.00316 µM) 91.2%; (second compound 0.03 µM, first compound 0.01 µM) 94.8%; (second compound 0.03 µM, first compound 0.0316 µM) 85%; (second compound 0.03 µM, first compound 0.1 µM) 117%; (second compound 0.03 µM, first compound 0.316 µM) 64.9%; (second compound 0.03 µM, first compound 1 µM) 15.8%. In addition, the viability, T/C is 103% (second compound 0.0949 µM, first compound 0.00316 µM); 90.8% (second compound 0.0949 µM, first compound 0.01 µM); 98.2% (second compound 0.0949 µM, first compound 0.0316 µM); 113% (second compound 0.0949 µM, first compound 0.1 µM); 69.8% (second compound 0.0949 µM, first compound 0.316 µM); 28.4% (second compound 0.0949 µM, first compound 1 µM). In addition, the viability, T/C runs as follows: (second compound 0.3 µM, first compound 0.00316 µM) 124%; (second compound 0.3 µM, first compound 0.01 µM) 95.1%; (second compound 0.3 µM, first compound 0.0316 µM) 86.3%; (second compound 0.3 µM, first compound 0.1 µM) 107%; (second compound 0.3 µM, first compound 0.316 µM) 71.4%; (second compound 0.3 µM, first compound 1 µM) 23%. Further, the viability, T/C by setting is: (second compound 0.949 µM, first compound 0.00316 µM) 105%; (second compound 0.949 µM, first compound 0.01 µM) 105%; (second compound 0.949 µM, first compound 0.0316 µM) 114%; (second compound 0.949 µM, first compound 0.1 µM) 104%; (second compound 0.949 µM, first compound 0.316 µM) 72.2%; (second compound 0.949 µM, first compound 1 µM) 22.4%. Moreover, the viability, T/C reads like this: (second compound 3 µM, first compound 0.00316 µM) 105%; (second compound 3 µM, first compound 0.01 µM) 92.7%; (second compound 3 µM, first compound 0.0316 µM) 96.8%; (second compound 3 µM, first compound 0.1 µM) 90.2%; (second compound 3 µM, first compound 0.316 µM) 55.4%; (second compound 3 µM, first compound 1 µM) 24.8%.

Turning to `CCN1C(C(=O)NC23CCC(C(=O)O)(CC2)CC3)C(c2cccc(Cl)c2F)C2(C(=O)Nc3cc(Cl)ccc32)C12CCCCC2` (stereo unspecified), the viability, T/C was 96.6% [middle of 9 runs] (compound 0.0949 µM), 95.2% [middle of 9 runs] (compound 0.3 µM) and 87.6% [middle of 9 runs] (compound 3 µM). Further, the half-maximal inhibitory concentration (IC50) by setting is: (compound alone, run of 11/07/2022) more than 3000 nM; (curve of compound) more than 3000 nM.

`NC1CCC(NC2CC2c2ccccc2)CC1` (stereo unspecified): the viability, T/C (compound 0.000316 µM) was 107% and 84.4% and 104%; the viability, T/C (compound 0.001 µM) is 97.8% and 80.7% and 96.1%; the viability, T/C (compound 0.00316 µM) is 84.8% and 99.5% and 109%; the viability, T/C (compound 0.01 µM) is 95.1% and 93.7% and 104%; the viability, T/C (compound 0.0316 µM) is 91.5% and 112% and 96.1%; the viability, T/C (compound 0.1 µM) was 97.7% and 80.4% and 90%. Further, the IC50 (curve of compound) is more than 100 nM.

On to `Cc1nc(N2CCC3(CC2)COC(C)C3N)c(CO)nc1Sc1ccnc(N)c1Cl` (stereo unspecified) + Cc1c(S(C)(=O)=O)c(-c2cc(F)cc(N3CCN(c4ccc(NS(=O)(=O)c5ccc(NC(CCN6CCC(C(=O)OCCCP(=O)(O)O)CC6)CSc6ccccc6)c(S(=O)(=O)C(F)(F)F)c5)cc4)CC3)c2)c(-c2ccc(Cl)cc2)n1C(C)C, for which the concentration for half-maximal inhibition (IC50) is, setting by setting: (curve of first compound, second compound 0.0316 µM) 1960 nM; (curve of first compound, second compound 0.1 µM) 2540 nM; (curve of first compound, second compound 0.316 µM) 946 nM; (curve of first compound, second compound 1 µM) 600 nM; (curve of first compound, second compound 3.16 µM) 469 nM; (curve of first compound, second compound 10 µM) 992 nM. In addition, the viability, T/C runs as follows: (second compound 0.0316 µM, first compound 0.00949 µM) 96.4%; (second compound 0.0316 µM, first compound 0.03 µM) 77.5%; (second compound 0.0316 µM, first compound 0.0949 µM) 98.4%; (second compound 0.0316 µM, first compound 0.3 µM) 82.8%; (second compound 0.0316 µM, first compound 0.949 µM) 61.3%; (second compound 0.0316 µM, first compound 3 µM) 43.5%. Moreover, the viability, T/C was 98.1% (second compound 0.1 µM, first compound 0.00949 µM); 92.1% (second compound 0.1 µM, first compound 0.03 µM); 81.9% (second compound 0.1 µM, first compound 0.0949 µM); 69.8% (second compound 0.1 µM, first compound 0.3 µM); 51.3% (second compound 0.1 µM, first compound 0.949 µM); 51% (second compound 0.1 µM, first compound 3 µM). Further, the viability, T/C (second compound 0.316 µM, first compound 0.00949 µM) was 88.3%; the viability, T/C (second compound 0.316 µM, first compound 0.03 µM) was 91.3%; the viability, T/C (second compound 0.316 µM, first compound 0.0949 µM) was 74.4%; the viability, T/C (second compound 0.316 µM, first compound 0.3 µM) was 63.9%; the viability, T/C (second compound 0.316 µM, first compound 0.949 µM) was 52.2%; the viability, T/C (second compound 0.316 µM, first compound 3 µM) was 29.9%. Also, the viability, T/C reads like this: (second compound 1 µM, first compound 0.00949 µM) 93.7%; (second compound 1 µM, first compound 0.03 µM) 73.2%; (second compound 1 µM, first compound 0.0949 µM) 68.8%; (second compound 1 µM, first compound 0.3 µM) 63.1%; (second compound 1 µM, first compound 0.949 µM) 39.2%; (second compound 1 µM, first compound 3 µM) 37.9%. Besides, the viability, T/C is, setting by setting: (second compound 3.16 µM, first compound 0.00949 µM) 86.5%; (second compound 3.16 µM, first compound 0.03 µM) 69.8%; (second compound 3.16 µM, first compound 0.0949 µM) 66.2%; (second compound 3.16 µM, first compound 0.3 µM) 58.6%; (second compound 3.16 µM, first compound 0.949 µM) 42.2%; (second compound 3.16 µM, first compound 3 µM) 20.4%. The viability, T/C reads like this: (second compound 10 µM, first compound 0.00949 µM) 86.5%; (second compound 10 µM, first compound 0.03 µM) 87.3%; (second compound 10 µM, first compound 0.0949 µM) 81.7%; (second compound 10 µM, first compound 0.3 µM) 67.5%; (second compound 10 µM, first compound 0.949 µM) 52%; (second compound 10 µM, first compound 3 µM) 26.7%.
